Values of other authors in US5217965A, “Stabilized solid dosage forms of choline metal carboxymethylcellulose salicylate compositions” (Euroceltique, S.A., priority 1991, dated 1993).

Details: background

In the case of `C[N+](C)(C)CCO.O=C([O-])c1ccccc1O` [Choline salicylate], the Hygroscopicity is given as “highly hygroscopic”.
